This note sets out measurements from ChEMBL document CHEMBL3045322, “Synthesis and herbicidal activity of 2-acylimino-3-phenyl-1,3-thiazolines—A new family of bleaching herbicides—” (J Pestic Sci, 2006).

The test system of one data set is Echinochloa frumentacea. Description: Herbicidal activity against Echinochloa frumentacea (Japanese millet) in plastic pot assessed as killing at 500 g/ha under greenhouse for 20 days by preemergence herbicidal activity tests. Type of data set: functional.
Data set [1] deals with Abutilon theophrasti. The data set is described as follows: Herbicidal activity against Abutilon theophrasti (velvetleaf) in plastic pot assessed as killing at 500 g/ha under greenhouse for 20 days by preemergence herbicidal activity tests. Type of data set: functional.
Data set [2] concerns Ipomoea nil. The data set is described as follows: Herbicidal activity against Ipomoea nil (Japanese morning glory) in plastic pot assessed as killing at 500 g/ha under greenhouse for 20 days by pre-emergence herbicidal activity tests. In kind it is functional.
For data set [3], the system named is Amaranthus viridis. Description: Herbicidal activity against Amaranthus viridis in field soil at 62.5 g/ha measured after 3 days by pre-emergence herbicidal activity tests. In kind it is functional.
The test system of data set [4] is Portulaca oleracea. Description: Herbicidal activity against Portulaca oleracea in field soil at 62.5 g/ha measured after 3 days by preemergence herbicidal activity tests. Type of data set: functional.
The test system of data set [5] is Sida spinosa. Description: Herbicidal activity against Sida spinosa in field soil at 125 g/ha measured after 3 days by preemergence herbicidal activity tests. In kind it is functional.
The test system of data set [6] is Ipomoea nil. The data set is described as follows: Herbicidal activity against Ipomoea nil (Japanese morning glory) in field soil at 125 g/ha measured after 3 days by pre-emergence herbicidal activity tests. Type of data set: functional.
Data set [7] concerns Eleusine indica. Description: Herbicidal activity against Eleusine indica in field soil at 125 g/ha measured after 3 days by preemergence herbicidal activity tests. Type of data set: functional.
The subject of data set [8] is Gossypium hirsutum. Description: Phytotoxicity against Gossypium hirsutum (cotton) at 125 g/ha by selectivity assay. In kind it is organism-based. The note with it: in vivo.
Data set [9] relates to Echinochloa crus-galli. Description: Herbicidal activity against Echinochloa crus-galli (barnyard grass) in field soil at 125 g/ha measured after 3 days by preemergence herbicidal activity tests. Type of data set: functional.
Data set [10] deals with Abutilon theophrasti. The data set is described as follows: Herbicidal activity against Abutilon theophrasti (velvetleaf) in field soil at 125 g/ha measured after 3 days by preemergence herbicidal activity tests. In kind it is functional.
For data set [11], the system named is Sorghum halepense. The data set is described as follows: Herbicidal activity against Sorghum halepense (Johnson grass) in field soil at 125 g/ha measured after 3 days by preemergence herbicidal activity tests. Type of data set: functional.
Data set [12] concerns Eleusine indica. The data set is described as follows: Herbicidal activity against Eleusine indica in field soil at 62.5 g/ha measured after 3 days by preemergence herbicidal activity tests. Type of data set: functional.
Data set [13] relates to Amaranthus viridis. The data set is described as follows: Herbicidal activity against Amaranthus viridis in field soil at 125 g/ha measured after 3 days by pre-emergence herbicidal activity tests. In kind it is functional.
The test system of data set [14] is Abutilon theophrasti. The data set is described as follows: Herbicidal activity against Abutilon theophrasti (velvetleaf) in field soil at 62.5 g/ha measured after 3 days by preemergence herbicidal activity tests. Type of data set: functional.
The subject of data set [15] is Sida spinosa. Description: Herbicidal activity against Sida spinosa in field soil at 62.5 g/ha measured after 3 days by preemergence herbicidal activity tests. In kind it is functional.
The subject of data set [16] is Sorghum halepense. Description: Herbicidal activity against Sorghum halepense (Johnson grass) in field soil at 62.5 g/ha measured after 3 days by preemergence herbicidal activity tests. Type of data set: functional.
For data set [17], the system named is Portulaca oleracea. The data set is described as follows: Herbicidal activity against Portulaca oleracea in field soil at 125 g/ha measured after 3 days by preemergence herbicidal activity tests. Type of data set: functional.
In data set [18] the test system is Echinochloa crus-galli. Description: Herbicidal activity against Echinochloa crus-galli (barnyard grass) in field soil at 62.5 g/ha measured after 3 days by preemergence herbicidal activity tests. Type of data set: functional.
Data set [19] has as its system Ipomoea nil. The data set is described as follows: Herbicidal activity against Ipomoea nil (Japanese morning glory) in field soil at 62.5 g/ha measured after 3 days by pre-emergence herbicidal activity tests. Type of data set: functional.
Data set [20] concerns Gossypium hirsutum. The data set is described as follows: Phytotoxicity against Gossypium hirsutum (cotton) at 62.5 g/ha by selectivity assay. Type of data set: organism-based. The note with it: in vivo.

Structures are written as SMILES.

Consider `CCOC(=O)/N=c1/sc(CC)cn1-c1cccc(C(F)(F)F)c1`, for which the Activity with Echinochloa frumentacea, in the data set on Abutilon theophrasti [1] and with Ipomoea nil [2] was 70% each time.

Regarding `Cc1cn(-c2cccc(C(F)(F)F)c2)/c(=N/C(=O)C(F)(F)F)s1`, the Activity was determined as 90% in the data set with Amaranthus viridis [3]; 90% in the data set on Portulaca oleracea [4]; 100% in the data set on Sida spinosa [5]; 100% with Ipomoea nil [6]; 90% in the data set on Eleusine indica [7]; 30% with Gossypium hirsutum [8]. For the same molecule, the Activity with Echinochloa crus-galli [9] is 100%; with Abutilon theophrasti [10], 100%; in the data set with Sorghum halepense [11], 90%; in the data set with Eleusine indica [12] it was 80%; in the data set with Amaranthus viridis [13], 100%; with Abutilon theophrasti [14], 90%. Also, the Activity is on record as 90% in the data set with Sida spinosa [15]; 70% in the data set on Sorghum halepense [16]; 100% in the data set with Echinochloa frumentacea; 100% in the data set on Abutilon theophrasti [1]; 90% with Portulaca oleracea [17]; 80% in the data set with Echinochloa crus-galli [18]. For the same molecule, the values for the Activity in the data set with Ipomoea nil [19], with Gossypium hirsutum [20] and in the data set on Ipomoea nil [2] were 80%, 10% and 100%, respectively.

Consider `Cc1cn(-c2cccc(C(F)(F)F)c2)/c(=N/C(=O)C(F)(F)C(F)(F)F)s1`, for which the Activity in the data set with Echinochloa frumentacea worked out at 80%; in the data set with Abutilon theophrasti [1] it was 80%; with Ipomoea nil [2], 70%.

In the case of `CCOC(=O)/N=c1/scc(C)n1-c1cccc(C(F)(F)F)c1`, the Activity with Echinochloa frumentacea, in the data set on Abutilon theophrasti [1] and with Ipomoea nil [2] was 0% throughout.

For the molecule `CCOC(=O)/N=c1/scc(Cl)n1-c1cccc(C(F)(F)F)c1`, the Activity in the data set with Echinochloa frumentacea, with Abutilon theophrasti [1] and with Ipomoea nil [2] was 0% in each case.

Regarding `CCOC(=O)/N=c1/scc(N)n1-c1cccc(C(F)(F)F)c1`, the Activity in the data set on Echinochloa frumentacea is 30%; with Abutilon theophrasti [1], 0%; in the data set on Ipomoea nil [2] it was 10%.

Take `CCOC(=O)/N=c1/sc(C)cn1-c1cccc(C(F)(F)F)c1`: the Activity with Echinochloa frumentacea, with Abutilon theophrasti [1] and with Ipomoea nil [2] was 90% in each case.

Regarding `CCCc1cn(-c2cccc(C(F)(F)F)c2)/c(=N\C(=O)OCC)s1`, the Activity in the data set on Echinochloa frumentacea is 60%; in the data set with Abutilon theophrasti [1] it was 0%; in the data set with Ipomoea nil [2], 40%.

Regarding `CCOC(=O)/N=c1/sc(C(C)C)cn1-c1cccc(C(F)(F)F)c1`, the Activity in the data set with Echinochloa frumentacea was found to be 0%; with Abutilon theophrasti [1], 0%; in the data set on Ipomoea nil [2], 10%.

Take `CCOC(=O)/N=c1/sc(Cl)cn1-c1cccc(C(F)(F)F)c1`: the Activity is 90% in the data set with Echinochloa frumentacea, 70% in the data set on Abutilon theophrasti [1] and 60% in the data set with Ipomoea nil [2].

Regarding `CCOC(=O)/N=c1/sc(Br)cn1-c1cccc(C(F)(F)F)c1`, the results for the Activity in the data set on Echinochloa frumentacea, in the data set on Abutilon theophrasti [1] and in the data set with Ipomoea nil [2] were 90%, 100% and 60%, respectively.

With `CCOC(=O)/N=c1/sc(I)cn1-c1cccc(C(F)(F)F)c1`, the Activity with Echinochloa frumentacea is on record as 80%; in the data set on Abutilon theophrasti [1] it was 60%; in the data set with Ipomoea nil [2], 90%.

As for `CCOC(=O)/N=c1/sc(SC)cn1-c1cccc(C(F)(F)F)c1`, the values for the Activity in the data set on Echinochloa frumentacea, in the data set on Abutilon theophrasti [1] and in the data set on Ipomoea nil [2] were 70%, 40% and 50%, respectively.

Take `CCOC(=O)/N=c1/sc(C#N)cn1-c1cccc(C(F)(F)F)c1`: the Activity with Echinochloa frumentacea amounted to 20%; with Abutilon theophrasti [1], 0%; with Ipomoea nil [2], 0%.

On to `CCOC(=O)/N=c1/sc2c(n1-c1cccc(C(F)(F)F)c1)CCC2`, for which the Activity in the data set on Echinochloa frumentacea, in the data set on Abutilon theophrasti [1] and in the data set with Ipomoea nil [2] was 0% in each case.

On to `CCOC(=O)/N=c1/sc2c(n1-c1cccc(C(F)(F)F)c1)CCCC2`, for which the Activity in the data set on Echinochloa frumentacea, in the data set with Abutilon theophrasti [1] and in the data set on Ipomoea nil [2] was 0% throughout.

As to `CCOC(=O)/N=c1/sc(C)c(Br)n1-c1cccc(C(F)(F)F)c1`, the Activity worked out at 20% with Echinochloa frumentacea, 0% in the data set with Abutilon theophrasti [1] and 40% in the data set on Ipomoea nil [2].

`CCOC(=O)/N=c1/sc(Br)c(Br)n1-c1cccc(C(F)(F)F)c1`: the Activity in the data set on Echinochloa frumentacea amounted to 20%; in the data set on Abutilon theophrasti [1], 0%; with Ipomoea nil [2] it was 40%.

With `Cc1cn(-c2cccc(C(F)(F)F)c2)c(=N)s1`, the Activity in the data set on Echinochloa frumentacea was 40%; with Abutilon theophrasti [1], 0%; in the data set on Ipomoea nil [2], 0%.

As for `C/N=c1/sc(C)cn1-c1cccc(C(F)(F)F)c1`, the Activity in the data set with Echinochloa frumentacea, in the data set with Abutilon theophrasti [1] and in the data set with Ipomoea nil [2] was 0% throughout.

Consider `Cc1cn(-c2cccc(C(F)(F)F)c2)/c(=N/c2ccc(Cl)cc2)s1`, for which the Activity with Echinochloa frumentacea, in the data set on Abutilon theophrasti [1] and in the data set with Ipomoea nil [2] was 0% throughout.

Turning to `CSC(=S)/N=c1/sc(C)cn1-c1cccc(C(F)(F)F)c1`, the figures for the Activity with Echinochloa frumentacea, in the data set with Abutilon theophrasti [1] and in the data set on Ipomoea nil [2] were 50%, 30% and 40%, respectively.

Take `CC(=O)/N=c1/sc(C)cn1-c1cccc(C(F)(F)F)c1`: the Activity in the data set on Echinochloa frumentacea amounted to 100%; in the data set with Abutilon theophrasti [1], 90%; with Ipomoea nil [2], 100%.

As for `CC(=S)/N=c1/sc(C)cn1-c1cccc(C(F)(F)F)c1`, the Activity in the data set on Echinochloa frumentacea came out at 10%; in the data set on Abutilon theophrasti [1], 0%; with Ipomoea nil [2], 0%.

As to `CCNC(=O)/N=c1/sc(C)cn1-c1cccc(C(F)(F)F)c1`, the Activity is 80% with Echinochloa frumentacea, 40% in the data set on Abutilon theophrasti [1] and 40% in the data set on Ipomoea nil [2].

Take `CCNC(=S)/N=c1/sc(C)cn1-c1cccc(C(F)(F)F)c1`: the Activity in the data set with Echinochloa frumentacea was 20%; with Abutilon theophrasti [1] it was 0%; with Ipomoea nil [2] it was 0%.

Turning to `Cc1cn(-c2cccc(C(F)(F)F)c2)/c(=N\C(=O)N(C)C)s1`, the Activity in the data set on Echinochloa frumentacea came to 70%; in the data set with Abutilon theophrasti [1] it was 30%; in the data set on Ipomoea nil [2], 20%.

Turning to `Cc1cn(-c2cccc(C(F)(F)F)c2)/c(=N\C(=O)Nc2ccccc2)s1`, the Activity with Echinochloa frumentacea stood at 60%; in the data set with Abutilon theophrasti [1], 60%; with Ipomoea nil [2] it was 40%.

As to `Cc1cn(-c2cccc(C(F)(F)F)c2)/c(=N\S(C)(=O)=O)s1`, the Activity in the data set on Echinochloa frumentacea is on record as 90%; in the data set on Abutilon theophrasti [1], 80%; with Ipomoea nil [2] it was 80%.

On to `Cc1cn(-c2cccc(C(F)(F)F)c2)/c(=N/C#N)s1`, for which the Activity in the data set on Echinochloa frumentacea worked out at 90%; in the data set on Abutilon theophrasti [1] it was 60%; with Ipomoea nil [2] it was 50%.

On to `CCC(=O)/N=c1\sc(C)cn1-c1cccc(C(F)(F)F)c1`, for which the Activity was determined as 70% in the data set with Echinochloa frumentacea, 50% with Abutilon theophrasti [1] and 60% with Ipomoea nil [2].

Take `CCCC(=O)/N=c1\sc(C)cn1-c1cccc(C(F)(F)F)c1`: the Activity with Echinochloa frumentacea is recorded as 40%; with Abutilon theophrasti [1], 20%; with Ipomoea nil [2], 40%.

In the case of `Cc1cn(-c2cccc(C(F)(F)F)c2)/c(=N/C(=O)C(C)C)s1`, the Activity is 70% with Echinochloa frumentacea, 60% in the data set with Abutilon theophrasti [1] and 40% in the data set with Ipomoea nil [2].

On to `Cc1cn(-c2cccc(C(F)(F)F)c2)/c(=N/C(=O)C(C)(C)C)s1`, for which the Activity with Echinochloa frumentacea is 50%; in the data set on Abutilon theophrasti [1], 40%; with Ipomoea nil [2], 60%.

In the case of `Cc1cn(-c2cccc(C(F)(F)F)c2)/c(=N/C(=O)C2CC2)s1`, the Activity in the data set with Echinochloa frumentacea turned out to be 90%; in the data set with Abutilon theophrasti [1] it was 40%; in the data set on Ipomoea nil [2], 60%.

For the molecule `Cc1cn(-c2cccc(C(F)(F)F)c2)/c(=N/C(=O)CCl)s1`, the figures for the Activity in the data set on Echinochloa frumentacea, in the data set with Abutilon theophrasti [1] and in the data set with Ipomoea nil [2] were 20%, 0% and 0%, respectively.

Regarding `Cc1cn(-c2cccc(C(F)(F)F)c2)/c(=N/C(=O)C(Cl)Cl)s1`, the Activity with Echinochloa frumentacea amounted to 30%; with Abutilon theophrasti [1] it was 0%; in the data set on Ipomoea nil [2], 0%.

With `Cc1cn(-c2cccc(C(F)(F)F)c2)/c(=N/C(=O)CF)s1`, the Activity in the data set with Echinochloa frumentacea was determined as 90%; in the data set on Abutilon theophrasti [1], 70%; in the data set with Ipomoea nil [2], 90%.

For the molecule `CCOC(=O)/N=c1/sccn1-c1cccc(C(F)(F)F)c1`, the Activity in the data set on Echinochloa frumentacea was 50%; in the data set on Abutilon theophrasti [1], 20%; in the data set on Ipomoea nil [2] it was 20%.
